The results in this text go back to ChEMBL document CHEMBL1131595, “Chemoprotective properties of phenylpropenoids, bis(benzylidene)cycloalkanones, and related Michael reaction acceptors: correlation of potencies as phase 2 enzyme inducers and radical scavengers” (J Med Chem, 1998).

The assay can be described thus: Scavenging activity of compound (superoxide radicals generated by the oxidation of xanthine and xanthine oxidase),expressed as the percent quenching of luminescence of lucigenin at 50 nM concentration.

As to `COc1ccccc1/C=C1\CCC/C(=C\c2ccccc2OC)C1=O`, the Free radical scavenging was found to be 19%.

`O=C1/C(=C/c2ccccc2)CCCC/C1=C\c1ccccc1` registered a Free radical scavenging of 11%.

`COc1cc(/C=C2\CCC/C(=C\c3ccc(O)c(OC)c3)C2=O)ccc1O`: the Free radical scavenging amounted to 30%.

Take `O=C1/C(=C/c2ccccc2)CC/C1=C\c1ccccc1`: the Free radical scavenging is 10%.

The molecule `O=C1/C(=C/c2ccccc2)CCC/C1=C\c1ccccc1` gave a Free radical scavenging of 11%.

As for `O=C1/C(=C/c2ccccc2O)CC/C1=C\c1ccccc1O`, the Free radical scavenging worked out at 70%.

In turn, `O=C1/C(=C/c2ccccc2O)CCC/C1=C\c1ccccc1O` came in with a Free radical scavenging of 42%.
